One test has as its system male Wistar rats. As to the kind of experiment: Sperm motility in asthenospermia simulated with Etoposide. Type of test: in vivo, rat. The following applies: for percentage of motile sperm cells: Treamid 5.0 mg/kg for 10 days after administration of Etoposide; for The number of motile sperm cells (in %): 5 days before and 5 days after Etoposide (preventive course), Treamid 5.0 mg/kg. The method, then:
The use of the drug that induces an increase in the free radical level was due to the fact that according to modern ideas, the direct cause of asthenospermia is oxidative stress (Kao S. H. et. al. Increase of oxidativestress in human sperm with lower motility. Fertil. and Steril. 2008; 89: 5: 1183-1190).
The experiments were performed on 50 male Wistar rats (3 months of age). Etoposide was administered once intravenously at the maximum tolerated dose of 30 mg/kg.
The effectiveness of Treamid was assessed by the percentage of motile sperm forms isolated from the epididymis.
In the first series, the results of the studies were compared with those obtained for administration of the reference drug, Speman, that was administered intragastrically at a dose of 140 mg/kg.

The subject of the next test is male CBA/CaLac mice. Nature of the test: Chronic toxic hepatitis model (CCl4), liver histology. It counts as in vivo, mouse. The note with it: Day 28; Treamid 10 mg/kg intragastrically Day 14-27. As for the experimental part:
Chronic toxic hepatitis was induced in the male CBA/CaLac mice by intragastric administration of a 20% carbon tetrachloride (CCl4) solution in olive oil in a volume of 0.2 ml/mouse on Days 0, 3, 7, 10, 14, and 17 of the study. Treamid was administered at a dose of 10 mg/kg intragastrically once daily, every day from Day 14 to Day 27 of the study. On day 28, the animals were euthanized in a CO2 chamber and a liver biopsy sample was taken for histological analysis.
For histological examination, the liver was fixed in a 10% neutral formalin solution and then poured into paraffin by the standard method. Deparaffined sections of a thickness of 5 μm were stained: 1) with hematoxylin and eosin according to the standard procedure for routine histological examination; and 2) with picrofuxin for the calculation of the area of connective tissue, using a graphic data processing software.

Where “and” joins values, the source holds several entries; their conditions need not be identical. Equal entries are not always repeated.

With `O=C(CCCC(=O)NCCc1ncc[nH]1)NCCc1ncc[nH]1` [Treamid], the “percentage of motile sperm cells” value in the test with male Wistar rats (group M ± m) is 71.01 ± 1.80 %; in the test on male Wistar rats (individual males) it was 74.55% and 69.44% and 70.20% and 65.52% and 75.34%. Moreover, the “The number of motile sperm cells (in %)” value in the test with male Wistar rats (group X ± m, Speman 140 mg/kg) is 79.83 ± 1.88#*⋄ %; in the test with male Wistar rats (individual animals, Speman 140 mg/kg intragastrically), 77.42% and 79.09% and 82.72% and 74.67% and 85.26%. For the same compound, the “content of connective tissue in the liver compared to the pathological control” value in the test with male CBA/CaLac mice was “markedly reduced”. Besides, in the test on male CBA/CaLac mice, the “histological pattern of the liver” value is “did not differ from that of the intact control”.

The values above are taken from patent US10076511B2, “Bisamide derivative of dicarboxylic acid as an agent for stimulating tissue regeneration and recovery of diminished tissue function” (TREAMID GmbH, priority 2015, dated 2018).
